Laboratory results published in BindingDB's records for aid1799747 (Csar, 2012).

biological target: T1, UDP-3-O-acyl-N-acetylglucosamine deacetylase (Aquifex aeolicus (strain VF5), UniProt O67648); assay: OctetRed; settings: pH 7; 25 °C
T1 sequence (O67648 whole entry): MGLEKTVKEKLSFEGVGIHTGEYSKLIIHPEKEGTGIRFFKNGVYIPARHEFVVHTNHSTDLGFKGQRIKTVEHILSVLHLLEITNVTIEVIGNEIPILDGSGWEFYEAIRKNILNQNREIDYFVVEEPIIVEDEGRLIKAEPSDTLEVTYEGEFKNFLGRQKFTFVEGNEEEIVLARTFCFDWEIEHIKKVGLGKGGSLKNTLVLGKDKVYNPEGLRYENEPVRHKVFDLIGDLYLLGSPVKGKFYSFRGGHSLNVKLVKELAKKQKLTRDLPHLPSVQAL

Compound | Kd | Ki
O=C(NO)c1csc(-c2ccc(OC(F)(F)F)c(Cl)c2)n1 [CS275] | 1820 nM | –
C[C@@H](O)[C@H](NC(=O)c1ccc(-c2ccccc2)cc1)C(=O)NO [CS263] | 14 nM | –
C[C@@H](O)[C@H](NC(=O)c1ccc(C#Cc2ccccc2)cc1)C(=O)NO [CS259] | – | 1 nM
CCCc1ccc(-c2ccc(C3=N[C@@H](C(=O)NO)CO3)cc2)cc1 [CS274] | 415 nM | –
NC[C@H](NC(=O)c1ccc(-c2ccc(Br)cc2)cc1)C(=O)NO [CS250] | 29 nM | –
C[C@@H](O)[C@H](NC(=O)c1ccc(-c2ccc(Br)cc2)cc1)C(=O)NO [CS258] | – | 1 nM
O=C(NO)[C@H]1COC(c2cc3cc(F)ccc3[nH]2)=N1 [CS272] | 772 nM | –
C[C@@H](O)[C@H](NC(=O)c1ccc(C#CC#Cc2ccccc2)cc1)C(=O)NO [CS257] | – | 1 nM
NC[C@H](NC(=O)c1ccc(C#CC#Cc2ccccc2)cc1)C(=O)NO [CS252] | – | 10 nM
NC[C@H](NC(=O)c1ccc(-c2ccccc2)cc1)C(=O)NO [CS249] | 145 nM | –
O=C(NO)[C@H]1COC(c2ccc(F)c(C(F)(F)F)c2)=N1 [CS271] | 443 nM | –
O=C(NO)[C@H]1COC(c2ccc(OC(F)(F)F)c(Cl)c2)=N1 [CS270] | 744 nM | –
